From patent US20250382346A1, “NEURONAL PROMOTERS AND USES THEREOF” (priority 2023, published 2025)

Biological target: T1, rM3Ds (Rattus norvegicus, UniProt P08483, A177S/A238G/A489L/DEL261-437/DEL441-478/E258S/I253V/I483M/INS256[…]/K178L/K182A/K255R/K484R/K486H/L173F/L482A/M480V/R171S/R176Q/R179M/S481M/T174R/T181R/T257A/Y148C)
T1 sequence (P08483 with tags, fused parts or gaps Y148C/R171S/L173F/T174R/R176Q/A177S/K178L/R179M/T181R/K182A/A238G/I253V/K255R/INS256[…]/T257A/E258S/DEL261-437/DEL441-478/M480V/S481M/L482A/I483M/K484R/K486H/A489L): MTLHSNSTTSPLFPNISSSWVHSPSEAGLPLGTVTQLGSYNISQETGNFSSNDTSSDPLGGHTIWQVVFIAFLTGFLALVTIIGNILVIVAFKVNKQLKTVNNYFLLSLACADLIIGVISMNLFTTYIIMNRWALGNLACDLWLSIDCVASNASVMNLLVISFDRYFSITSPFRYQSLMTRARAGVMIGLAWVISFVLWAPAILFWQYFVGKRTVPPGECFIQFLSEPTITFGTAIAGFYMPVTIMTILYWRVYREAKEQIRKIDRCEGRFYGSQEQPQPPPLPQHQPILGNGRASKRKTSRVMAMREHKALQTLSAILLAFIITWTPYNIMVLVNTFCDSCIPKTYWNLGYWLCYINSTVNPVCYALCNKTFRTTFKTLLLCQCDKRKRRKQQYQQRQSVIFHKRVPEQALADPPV
Assay: Chemogenetic manipulation of BG direct pathway in mice with rM3Ds: rotations, nigral c-Fos
Type: in vivo
Set-up: 2A-EYFP (C); expressed in transfected cells; host or cells: neurons (striatal D1-MSNs) of mice or cynomolgus macaques, transduced in vivo by nigral AAV8R12-G88P7-rM3Ds-2A-EYFP
Settings: for contraversive rotations (FIG. 7A), mean±SEM: AAV8R12-G88P7-rM3Ds-2A-EYFP nigral, n=8; for rotation behavior (FIG. 7C), mean±SEM: control vector AAV8R12-G88P7-EYFP, n=5, no effect
Method: Mice were anesthetized with sodium pentobarbital (Nembutal; 80 mg/kg, i.p.), and then placed into a stereotaxic device (KOPF). Eye cream was applied on both corneas to avoid dehydration. The skull above the targeted areas was thinned with a dental drill and carefully removed. Injections were conducted with a 10 μL syringe connected to a 33-Gauge needle (Neuros; Hamilton), using a microsyringe pump (Legato 130, KD Scientific). A total volume of 200 nL virus was injected into the SNr at a speed of 20 nL/min. The coordinates for the SNr were 3.4 mm posterior, 1.3 mm lateral, 4.8 mm ventral to the bregma.
Mice that were used in the behavioral experiments were then implanted with guide cannulas (KOPF) unilaterally aiming at the dorsomedial striatum (0.5 mm anterior, 1.5 mm lateral, 3.5 mm ventral to the bregma). The cannulas were fixed to the skull with dental cement. Stainless steel obturators were inserted into the guide cannulas and were replaced every other day to maintain the patency until infusions were made. Mice were allowed to recover from the surgery for at least 3 weeks before further studies.
To further optimize the system, an alternative chemogenetic effector that would potentially allow specific manipulation of the direct pathway compatible with systemic CNO infusions needed to be identified. […]. A different chemogenetic effector, rM3Ds, which uses cAMP as the second messenger and can effectively activate striatal MSNs, was used to avoid the activation of SNr neurons upon systemic CNO administration.
Together, these findings confirm that the approach we developed is a durable solution for selective activity modulation of D1-MSNs and the BG direct pathway.
Mice were individually handled for 10-20 seconds per day for at least 5 days to habituate them to the experimenter. The open field test was conducted in a test apparatus (50 cm×50 cm×50 cm) with an HD digital camera (Sony) positioned above the arena. On day one, mice were habituated to the apparatus for 10 minutes. On day 2, mice were administrated saline (0.1 mL i.p. or 200 nL intracranially [i.e.] through the guide cannulas). On day 3, mice were administrated with Clozapine-N-oxide (CNO, Hello Bio, HB1807; 0.3 mg/kg i.p. or 200 nL at 100 μM i.e.). All behavioral tests were conducted 30 minutes after injection. During the test, mice were allowed to freely explore the apparatus for 10 minutes. The behavioral data were analyzed with ANY-maze software (Stoelting Co.).

## C[N+]1([O-])CCN(C2=Nc3cc(Cl)ccc3Nc3ccccc32)CC1 [CNO, Clozapine-N-oxide]
CNO i.p., saline 45.95±4.972
  contraversive rotations (FIG. 7A), mean±SEM: 80.05±5.168
CNO intracranial, saline 58.31±4.742
  contraversive rotations (FIG. 7A), mean±SEM: 80.77±4.187
AAV8R12-G88P7-rM3Ds-2A-EYFP, intraperitoneal and intracranial CNO
  c-Fos+ cells in the SNr: did not increase the number of c-Fos+ cells in the SNr
CNO i.p., saline 48.68±7.203
  rotation behavior (FIG. 7C), mean±SEM: 46.88±7.497
CNO intracranial, saline 41.11±12.73
  rotation behavior (FIG. 7C), mean±SEM: 34.55±7.536
